According to article PMC7596085, “The pathogenic S688Y mutation in the ligand-binding domain of the GluN1 subunit regulates the properties of NMDA receptors” (Scientific Reports, 2020):
Like-named read-outs stand apart in the source and are kept apart here.

What was measured:
[1] = tested on: hippocampal neurons expressing YFP-hGluN1-1a-S688Y; conditions: 10 µM glycine together with 100 µM NMDA
GluN1 S688A mutation = conditions: S688A mutation vs wild type; cited from earlier work
[2] = tested on: hippocampal neurons expressing YFP-hGluN1-1a-S688Y; conditions: steady-state concentration-response, in the presence of 1 mM NMDA
[3] = tested on: hippocampal neurons expressing YFP-hGluN1-1a
hGluN1-4a-S688Y/hGluN3A = hGluN1-4a-S688Y/hGluN3A vs hGluN1-4a/hGluN3A, peak response
[4] = tested on: hippocampal neurons expressing YFP-hGluN1-1a; conditions: steady-state concentration-response, in the presence of 1 mM NMDA
[5] = tested on: hippocampal neurons expressing YFP-hGluN1-1a-S688Y; assay: NMDA-induced excitotoxicity, hippocampal neurons expressing YFP-hGluN1-1a-S688Y; type: cell-based, rat; conditions: 1 h treatment, measured 23 h later
Experimental: (§1) Excitotoxicity was measured 23 h after treatment by staining cells with the nuclear marker Hoechst 33,342 and then performing complex image analysis (Fig. 6a,b; see "Methods").
(§2) Excitotoxicity was induced as described previously. In brief, the cultured neurons were incubated overnight in 10% MEM (Thermo Fisher Scientific) and 90% salt-glucose (SG) medium containing 114 mM NaCl, 0.219% NaHCO3, 5.292 mM KCl, 1 mM MgCl2, 2 mM CaCl2, 10 mM HEPES, 30 mM glucose, […], and 0.1% phenol red. The following day, the media was replaced with 100% SG and the indicated concentrations of agonists/co-agonists were added to the neurons. […] Nuclear area was measured using ImageJ software (v. 1.52p), and custom-made macro scripts were used to automatically measure only the nuclei of infected cells (identified by YFP expression). […] The ratio of the number of cells in each group was then used to estimate the effects of mixing the two distributions and is expressed as the ratio of pyknotic and non-pyknotic cells. The percentage of pyknotic cells in each condition was then calculated as the number of cells classified as pyknotic divided by the total number of cells in that condition.

[6] = target: T1, hippocampal neurons expressing YFP-hGluN1-1a (Rattus norvegicus, UniProt P35439, I267L/M415L/N159S/R212K); assay: NMDA-induced excitotoxicity, hippocampal neurons expressing YFP-hGluN1-1a; type: cell-based; conditions: 1 h treatment, measured 23 h later
T1 construct: expressed in transfected cells; host or cells: primary rat hippocampal neurons (E18 Wistar), lentiviral infection with shRNA knock-down of endogenous GluN1
Experimental: as §1, §2

[7] = 10 µM co-agonist in the presence of 100 µM NMDA

| Structure (SMILES) | intracellular Ca2+ (Fura-2 F340/F380) [1] | reduction in glycine potency (GluN1 S688A mutation) | EC50 [2] | Hill coefficient (h) [2] | EC50 ([2]; listed as Glycine) | intracellular Ca2+ (Fura-2 F340/F380) ([3]; 10 µM glycine together with 100 µM NMDA) | intracellular Ca2+ (Fura-2 F340/F380) ([3]; 1000 µM glycine together with 100 µM NMDA) | decrease in glycine potency compared to wild-type receptors (hGluN1-4a-S688Y/hGluN3A) | EC50 [4] | Hill coefficient (h) [4] | EC50 ([4]; listed as Glycine) | neuronal cell death (% of d.n., pyknotic nuclei) ([5]; 10 µM co-agonist alone) | neuronal cell death / excitotoxicity (% of d.n., pyknotic nuclei) [5, 7] | neuronal cell death (% of d.n., pyknotic nuclei) ([6]; 10 µM co-agonist alone) | neuronal cell death / excitotoxicity (% of d.n., pyknotic nuclei) [6, 7] |
| --- | --- | --- | --- | --- | --- | --- | --- | --- | --- | --- | --- | --- | --- | --- | --- |
| NCC(=O)O [glycine] | no measurable effect | four-fold | 220 µM | 0.82 ± 0.06 | 219 ± 6.11 µM | robust increase | robust increase | ~ twofold | 0.2 µM | 1.15 ± 0.05 | 0.17 ± 0.02 µM |  |  |  |  |
| N[C@H](CO)C(=O)O [D-serine] |  |  |  |  |  |  |  |  |  |  |  | only a small degree of cell death | significantly reduced cell death | only a small degree of cell death | ~100% |
